In ChEMBL document CHEMBL3832021, “DailyMed|setid=e42c6a90-37f6-44f5-8112-126c2c4a4b2c | TESTIM- testosterone gel | A-S Medication Solutions LLC”:
Values joined by “and” are separate entries in the source; they are usually repeats but may differ in a detail not shown here. Identical values can stand only once.

What was measured:
Homo sapiens = test: Mean steady-state pharmacokinetic parammeters for Testosterone evaluated on day 30 following multiple topical administration of Testosterone gel to adult male subjetcs with testosterone levels <= 300ng/dL.; assay type: ADME, organism-based; parameters: dose 100 mg, dose 50 mg, route topical; details: in vivo, topical_or_ocular, dosed compound id 32, dosed compound name TESTOSTERONE, gender male, regimen Once daily, tissue Serum; for Cavg: route topical
[1] = Evaluation of excretion and half-life for Testosterone following intramusculary administration of testosterone doses.; assay type: ADME, organism-based; details: human, in vivo, im; dosed compound id 32, dosed compound name TESTOSTERONE, gender male, tissue Plasma

C[C@]12CC[C@H]3[C@@H](CCC4=CC(=O)CC[C@@]43C)[C@@H]1CC[C@@H]2O [TESTOSTERONE]
Cavg (Homo sapiens; dose 50 mg): 365 ng/dL | Cavg (Homo sapiens; dose 100 mg): 612 ng/dL | Cmax (Homo sapiens): 538 ng/dL and 897 ng/dL | half-life [1]: 10 to 100 min
